Assays:
human IGF-1R = biological target: T1, human IGF-1R (Homo sapiens, UniProt P08069); assay: Insulin-like growth factor-1 receptor (IGF-1R)-kinase assay (DELFIA); format: biochemical; conditions: inhibition of IGF-1R-kinase activity
T1 construct: human IGF-1R (amino acids 964-1370) is expressed as a fusion protein; made in house; host or cells: High Five insect cells (Invitrogen)
Experimental: Insulin-Like Growth Factor-1 Receptor (IGF-1R)-Kinase Assay
The kinase activity is measured by DELFIA® assay (dissociation-enhanced lanthanide fluorescence immunoassay, Perkin Elmer). The cytoplasmic kinase domain of human IGF-1R (amino acids 964-1370) is expressed as a fusion protein with a glutathione-S-transferase tag (IGF-1R-GST) in High Five™ Cells (Invitrogen). Enzyme activity is measured in the presence of substances and a control substance. Poly-glutamate-tyrosine peptide (pEY, Sigma Aldrich) and biotinylated pEY (bio-pEY) are used as reaction substrates.
10 μL of substance in 25% DMSO are mixed with 30 μL of IGF-1R-GST solution (67 mM HEPES pH 7.4, 15 μg/mL pEY, 1.7 μg/mL bio-pEY, 13.3 mM MgCl2, 3.3 mM dithiothreitol, 0.0033% Brij 35, 2 ng IGF-1R-GST) in 96-well plates. The reactions are started with 10 μL of a 750 μM ATP solution. After 40 min at RT the reactions are stopped with 50 μL of stop solution (250 mM EDTA, 20 mM HEPES pH 7.4). 90 μL from each reaction are transferred onto streptavidin-coated 96-well plates. After 120 min incubation at RT the plates are washed three times with 200 μL phosphate-buffered saline (PBS) per well. The plates are incubated for 60 min with 100 μL of europium-coupled antibody against phospho-tyrosine (diluted 1/2000 in Perkin Elmer DELFIA assay buffer) per well. The plates are washed three times with 200 μL per well of DELFIA washing buffer (Perkin Elmer). 100 μL DELFIA Enhancement Solution (Perkin Elmer) is added to each well, and the plates are incubated for 10 min. The fluorescence signal is measured with a Wallac Victor TRF Reader. IC50 values for the inhibition of the IGF-1R-kinase activity are calculated using the programme GraphPad (Version 3.0).

[1] = tested on: HCT 116 (colorectal carcinoma) cells; assay: Cell proliferation assay HCT 116 (Alamar Blue); format: cell-based; conditions: Homo sapiens; anti-proliferative effect, HCT 116 cells (negative control line), 72 h
Experimental: (§1) Cell Proliferation Assays
(§2) Compounds were tested for their anti-proliferative effects in the TC-71 (EWING'S sarcoma) and HCT 116 (colorectal carcinoma) cancer cell lines in vitro. Published scientific data has described that interference with the IGF-1R signaling pathway reduces the proliferation of TC-71 cells (Manara et al, 2007). Therefore TC-71 cells served as a positive control cell line for monitoring the activity of compounds against IGF-1R-mediated cell proliferation. […] Therefore the HCT 116 cell line served as a negative control.
(§3) 2000 TC-71 cells or 1000 HCT 116 cells were seeded per well in 180 μL IMDM+10% foetal calf serum (FCS)+penicillin/streptomycin into 96-well microtitre plates. The plates were placed in a cell culture incubator (37° C. in a humidified atmosphere of […]/5% CO2) overnight. The following day, serial dilutions of compounds, prepared in duplicates, were transferred onto the cell layers (controls without compound). The cells were cultivated for a further 72 h in the cell culture incubator. 20 μL of Alamar Blue™ (Serotec Ltd, Dusseldorf, Germany) was added to each well and the plates incubated for 7 h in the cell culture incubator. Fluorescence (extinction wavelength of 544 nm and emission at 590 nm) was then measured and the normalized data fitted by iterative calculation with a sigmoidal curve analysis program (Graph Pad Prism) with a variable Hill slope to determine the EC50 values.

[2] = tested on: TC-71 (EWING'S sarcoma) cells; assay: Cell proliferation assay TC-71 (Alamar Blue); format: cell-based; conditions: anti-proliferative effect, TC-71 cells, 72 h; read-out: TC71 EC50
Experimental: as §1, §2, §3

T1 sequence (P08069 964-1367 limits assumed): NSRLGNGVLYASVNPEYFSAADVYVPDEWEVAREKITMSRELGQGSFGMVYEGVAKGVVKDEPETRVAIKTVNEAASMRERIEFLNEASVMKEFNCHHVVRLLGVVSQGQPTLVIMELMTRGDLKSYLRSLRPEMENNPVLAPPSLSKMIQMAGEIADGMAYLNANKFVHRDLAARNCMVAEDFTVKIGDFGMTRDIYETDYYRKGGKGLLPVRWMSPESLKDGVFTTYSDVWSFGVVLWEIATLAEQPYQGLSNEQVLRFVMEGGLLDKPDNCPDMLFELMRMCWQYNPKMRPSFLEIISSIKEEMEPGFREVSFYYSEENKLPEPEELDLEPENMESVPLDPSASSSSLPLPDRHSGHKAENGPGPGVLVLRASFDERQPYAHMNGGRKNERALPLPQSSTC

IC50 (human IGF-1R) | EC50 [1] | EC50 [2] | Structure (SMILES)
1.1 nM | > 2500 nM | 5 nM | C[C@@H]1Cc2nn(C)c(-c3ccccc3)c2-c2nc(Nc3ccn(CCN4CCN(CC(=O)OC5CCOC5)CC4)n3)ncc21 (stereo partly drawn) [Compound I-6]
4.8 nM | > 2500 nM | 4 nM | C[C@@H]1Cc2nn(C)c(-c3ccccc3)c2-c2nc(Nc3ccn(CCN4CCN(CC(C)(C)O)C(=O)C4)n3)ncc21 [Compound I-5]
1.5 nM | > 2500 nM | 6.82 nM | CC(C(=O)OC[C@H]1CCCN1)N1CCN(CCn2ccc(Nc3ncc4c(n3)-c3c(nn(C)c3-c3ccccc3)C[C@H]4C)n2)CC1 (stereo partly drawn) [Compound I-4]
2.2 nM | > 2500 nM | 5.93 nM | C[C@@H]1Cc2nn(C)c(-c3ccccc3)c2-c2nc(Nc3ccn(CCN4CCN(CCO)CC4)n3)ncc21 [Compound I-10]

Source: patent US10414769B2, “5,8-dimethyl-9-phenyl-5,8-dihydro-6H-pyrazolo[3,4-h]quinazolin-2-yl)-(1H-pyrazol-3-yl)-amines as IGF-1R/IR inhibitors” (Boehringer Ingelheim International GmbH, priority 2015, dated 2019)
